This is an account of results in patent publication US7135488B2, “Pyrrolyl-thiazole derivatives” (Hoffmann-La Roche Inc., priority 2003, dated 2006).

What is called IC50 is the concentration at which inhibition is half-maximal. The term melting point denotes the temperature, or range, at which the solid turns liquid.

T1 sequence (P21554 whole entry): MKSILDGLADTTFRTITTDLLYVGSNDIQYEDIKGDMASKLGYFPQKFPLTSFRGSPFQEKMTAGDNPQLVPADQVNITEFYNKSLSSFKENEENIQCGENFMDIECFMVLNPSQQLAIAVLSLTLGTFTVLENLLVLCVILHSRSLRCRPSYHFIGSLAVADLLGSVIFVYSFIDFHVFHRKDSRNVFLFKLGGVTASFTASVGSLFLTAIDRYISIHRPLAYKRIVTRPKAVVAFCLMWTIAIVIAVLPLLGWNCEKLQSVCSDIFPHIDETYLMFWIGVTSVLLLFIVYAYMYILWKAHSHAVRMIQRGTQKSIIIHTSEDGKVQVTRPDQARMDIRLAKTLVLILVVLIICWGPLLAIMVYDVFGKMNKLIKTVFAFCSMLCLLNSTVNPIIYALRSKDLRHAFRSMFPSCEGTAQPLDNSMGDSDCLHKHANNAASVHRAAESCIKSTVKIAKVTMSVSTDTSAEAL

The first data set concerns the target T1, human cannabis CB1 receptor (Homo sapiens, UniProt P21554).
T1 construct: expressed in transfected cells; host or cells: human embryonic kidney (HEK) cells, Semliki Forest Virus system, membrane preparation
The experiment in a line: CB1 receptor affinity, [3H]-CP-55,940 radioligand binding on HEK cell membranes.
Settings: not given
The method, then:
The affinity of the compounds of the invention for cannabinoid CB1 receptors was determined using membrane preparations of human embryonic kidney (HEK) cells in which the human cannabis CB1 receptor is transiently transfected using the Semliki Forest Virus system in conjunction with [3H]-CP-55,940 as radioligand. After incubation of a freshly prepared cell membrane preparation with the [3H]-ligand, with or without addition of compounds of the invention, separation of bound and free ligand was performed by filtration over glassfiber filters. Radioactivity on the filter was measured by liquid scintillation counting.
`CCCCNC(=O)c1cc(-c2csc(-c3ccc(OC)cc3)n2)n(CC2CCCCC2)c1C` [Example 8, Cyclohexylmethyl-5-[2-(4-methoxy-phenyl)-thiazol-4-yl]-2-methyl-1H-pyrrole-3-carboxylic acid butylamide]: the half-inhibitory concentration (IC50) was less than 2000 nM.

Consider `COc1ccc(-c2nc(-c3cc(C(=O)NN4CCCCC4)c(C)n3CC3CCCCC3)cs2)cc1` [Example 299, Cyclohexylmethyl-5-[2-(4-methoxy-phenyl)-thiazol-4-yl]-2-methyl-1H-pyrrole-3-carboxylic acid piperidin-1-ylamide], for which the IC50 is less than 2000 nM.

Take `COc1ccc(-c2nc(-c3cc(C(=O)NCc4ccccn4)c(C)n3CC3CCCCC3)cs2)cc1` [Example 305, Cyclohexylmethyl-5-[2-(4-methoxy-phenyl)-thiazol-4-yl]-2-methyl-1H-pyrrole-3-carboxylic acid (pyridin-2-ylmethyl)-amide]: the half-maximal inhibitory concentration (IC50) is less than 2000 nM.

As for `COc1ccc(-c2nc(-c3cc(C(=O)N4CCCCC4)c(C)n3CC3CCCCC3)cs2)cc1` [Example 311, {1-Cyclohexylmethyl-5-[2-(4-methoxy-phenyl)-thiazol-4-yl]-2-methyl-1H-pyrrol-3-yl}-piperidin-1-yl-methanone], the IC50 is less than 2000 nM.

Turning to `COc1ccc(-c2nc(-c3cc(C(=O)Nc4ccccc4)c(C)n3CC3CCCCC3)cs2)cc1` [Example 315, Cyclohexylmethyl-5-[2-(4-methoxy-phenyl)-thiazol-4-yl]-2-methyl-1H-pyrrole-3-carboxylic acid phenylamide], the IC50 was less than 2000 nM.

Compound `COc1ccc(-c2nc(-c3cc(C(=O)Nc4ncccn4)c(C)n3CC3CCCCC3)cs2)cc1` [Example 324, Cyclohexylmethyl-5-[2-(4-methoxy-phenyl)-thiazol-4-yl]-2-methyl-1H-pyrrole-3-carboxylic acid pyrimidin-2-ylamide] showed a 50% inhibitory concentration (IC50) of less than 2000 nM.

The compound `CCCCNC(=O)c1cc(-c2csc(-c3ccc(OC)cc3)n2)n(Cc2ccccc2)c1C` [Example 333, Benzyl-5-[2-(4-methoxy-phenyl)-thiazol-4-yl]-2-methyl-1H-pyrrole-3-carboxylic acid butylamide] came in with an IC50 of less than 2000 nM.

Regarding `CCCCNC(=O)c1cc(-c2csc(-c3ccc4c(c3)OCO4)n2)n(CC2CCCCC2)c1C` [Example 340, 5-(2-Benzo[1,3]dioxol-5-yl-thiazol-4-yl)-1-cyclohexylmethyl-2-methyl-1H-pyrrole-3-carboxylic acid butylamide], the IC50 was less than 2000 nM.

Consider `COc1ccc(-c2nc(-c3cc(C(=O)NC4CCCCC4)c(C)n3CC3CCCCC3)cs2)cc1` [Example 356, Cyclohexylmethyl-5-[2-(4-methoxy-phenyl)-thiazol-4-yl]-2-methyl-1H-pyrrole-3-carboxylic acid cyclohexylamide], for which the IC50 was less than 2000 nM.

For `CCCCNC(=O)c1cc(-c2csc(C3CCCCC3)n2)n(CC2CCCCC2)c1C` [Example 375, Cyclohexylmethyl-5-(2-cyclohexyl-thiazol-4-yl)-2-methyl-1H-pyrrole-3-carboxylic acid butylamide], the half-inhibitory concentration (IC50) is less than 2000 nM.

The same data set, now with this note: membranes of HEK cells transiently transfected with human CB1 receptor; radioligand [3H]-CP-55,940; read-out: IC50 (affinity for the CB1 receptor).
For `CCCCNC(=O)c1cc(-c2csc(-c3ccc(OC)cc3)n2)n(Cc2ccccn2)c1C` [Example 371, 5-[2-(4-Methoxy-phenyl)-thiazol-4-yl]-2-methyl-1-pyridin-2-ylmethyl-1H-pyrrole-3-carboxylic acid butylamide], the IC50 is less than 2000 nM.

Tested on in the next data set: not given
Test: not given
Settings: not given
As for `CCCCNC(=O)c1cc(-c2csc(-c3ccc([N+](=O)[O-])cc3)n2)n(CC2CCCCC2)c1C` [Example 1, Cyclohexylmethyl-2-methyl-5-[2-(4-nitro-phenyl)-thiazol-4-yl]-1H-pyrrole-3-carboxylic acid butylamide], the melting point lay in the range of 184 to 187 °C.

Tested on in the next data set: not given
Test: not given
To be noted: doses of 5, 10 and 20 mg daily; double blind placebo-controlled study; cited from earlier work.
As to `Cc1c(C(=O)NN2CCCCC2)nn(-c2ccc(Cl)cc2Cl)c1-c1ccc(Cl)cc1` [SR 141716, Rimonabant], the “body weight compared to placebo” value is on record as “significantly reduced body weight”.
